The source of these data is ChEMBL document CHEMBL3085697, “Design and synthesis of aryl sulfonamide-based nonsteroidal mineralocorticoid receptor antagonists” (Bioorg Med Chem Lett, 2013).

Some results are limits rather than exact numbers.

A short description of data set [1]: Apparent intrinsic clearance in human liver microsomes. The class given is ADME. As to conditions: read-out: CLH(app).
Data set [2] can be described thus: Lipophilicity, log D of the compound. Type of data set: physicochemical. As to conditions: octanol/water.
Data set [3] deals with T1, Mineralocorticoid receptor (Homo sapiens, UniProt P08235).
T1 sequence (P08235 whole entry): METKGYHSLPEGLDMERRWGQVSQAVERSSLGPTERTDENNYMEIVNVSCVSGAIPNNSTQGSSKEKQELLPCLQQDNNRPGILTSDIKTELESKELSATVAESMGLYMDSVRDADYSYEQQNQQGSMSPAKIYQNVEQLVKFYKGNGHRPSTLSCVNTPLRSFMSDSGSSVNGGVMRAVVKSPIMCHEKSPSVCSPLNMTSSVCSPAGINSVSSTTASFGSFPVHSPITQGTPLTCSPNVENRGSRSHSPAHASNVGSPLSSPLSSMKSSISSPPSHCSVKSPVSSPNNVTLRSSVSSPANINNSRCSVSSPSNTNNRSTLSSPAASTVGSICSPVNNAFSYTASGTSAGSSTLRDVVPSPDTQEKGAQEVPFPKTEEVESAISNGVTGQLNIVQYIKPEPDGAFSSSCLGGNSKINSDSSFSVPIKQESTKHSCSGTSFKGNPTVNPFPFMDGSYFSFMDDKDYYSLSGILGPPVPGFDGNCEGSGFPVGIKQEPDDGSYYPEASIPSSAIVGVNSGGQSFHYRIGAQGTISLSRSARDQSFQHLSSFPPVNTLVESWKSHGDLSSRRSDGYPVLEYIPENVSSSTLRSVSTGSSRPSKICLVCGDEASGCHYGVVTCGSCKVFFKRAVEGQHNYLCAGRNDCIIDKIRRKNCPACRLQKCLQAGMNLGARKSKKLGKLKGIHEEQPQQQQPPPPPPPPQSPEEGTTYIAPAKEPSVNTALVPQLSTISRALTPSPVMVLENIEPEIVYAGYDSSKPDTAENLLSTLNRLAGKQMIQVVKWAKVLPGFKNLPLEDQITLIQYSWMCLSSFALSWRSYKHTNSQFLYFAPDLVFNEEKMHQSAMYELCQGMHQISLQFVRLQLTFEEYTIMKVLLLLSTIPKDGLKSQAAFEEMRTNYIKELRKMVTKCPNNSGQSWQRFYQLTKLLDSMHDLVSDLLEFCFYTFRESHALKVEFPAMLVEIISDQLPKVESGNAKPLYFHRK
Put plainly: Displacement of [3H]aldosterone from GST-tagged human mineralocorticoid receptor ligand binding domain after 4 hrs by liquid scintillation counting.

`Cc1noc(C)c1S(=O)(=O)NCc1ccc(-c2ccccc2)cc1`: in data set [1], the microsomal CLint stood at 203 µL/min/mg. Moreover, in data set [2], the logD – broadly, lipophilicity at a set pH, counting ionised and neutral species – turned out to be 4.1. Further, in data set [3], the IC50 (usually the concentration at which inhibition is half-maximal) turned out to be 356 nM.
The matching figures for `Cc1noc(C)c1S(=O)(=O)NCc1ccc(-c2ccccc2)s1`: 267 µL/min/mg, 3.9 and 609 nM.
Regarding `Cc1noc(C)c1S(=O)(=O)NCc1ccc(-c2cccc(C#N)c2)cc1`, the logD in data set [2] was 3.3. In data set [3], this compound returned an IC50 of 40 nM.
With `COc1ccc(C#N)cc1-c1ccc(CNS(=O)(=O)c2c(C)noc2C)cc1`, the microsomal CLint in data set [1] was found to be 198 µL/min/mg. For the same compound, the logD in data set [2] stood at 3.2. The IC50 in data set [3] came out at 45 nM.
As to `Cc1noc(C)c1S(=O)(=O)NCc1ccc(-c2cccc(C(N)=O)c2)cc1`, the logD in data set [2] turned out to be 2.4. The IC50 in data set [3] is 2030 nM.
With `Cc1noc(C)c1S(=O)(=O)NCc1ccc(-c2cccc(NS(C)(=O)=O)c2)cc1`, the microsomal CLint in data set [1] turned out to be 39 µL/min/mg. In data set [2], the logD turned out to be 2.9. Moreover, the IC50 in data set [3] came to 1390 nM.
The matching figures for `Cc1noc(C)c1S(=O)(=O)NCc1ccc(-c2cccnc2)cc1`: 86 µL/min/mg, 2.4 and 1530 nM.
For the compound `Cc1noc(C)c1S(=O)(=O)NCc1ccc(-c2cncc(C#N)c2)cc1`, the microsomal CLint in data set [1] stood at 25 µL/min/mg. In data set [2], this compound had a log distribution coefficient (logD) of 1.9. The compound further had an IC50 in data set [3] of 1970 nM.
On to `Cc1noc(C)c1S(=O)(=O)NCc1ccc(-n2ccnc2C)cc1`, for which the microsomal CLint in data set [1] came out at 17 µL/min/mg. The compound further registered a logD in data set [2] of 1.5. The IC50 in data set [3] turned out to be 4700 nM.
The matching figures for `Cc1cc(C)c(S(=O)(=O)NCc2ccc(-n3ccnc3C)cc2)c(C)c1`: more than 320 µL/min/mg, 3.2 and 121 nM.
The matching figures for `Cc1ccccc1S(=O)(=O)NCc1ccc(-n2ccnc2C)cc1`: 53 µL/min/mg, 2.3 and 1210 nM.
For the compound `Cc1nccn1-c1ccc(CNS(=O)(=O)c2ccccc2Cl)cc1`, the microsomal CLint in data set [1] amounted to 41 µL/min/mg. In addition, in data set [2], the logD stood at 2. Also, in data set [3], the IC50 came out at 342 nM.
On to `Cc1nccn1-c1ccc(CNS(=O)(=O)c2ccccc2F)cc1`, for which, in data set [1], the microsomal CLint is 18 µL/min/mg. Also, the logD in data set [2] was 1.8. The compound also registered an IC50 in data set [3] of 1840 nM.
Take `Cc1nccn1-c1ccc(CNS(=O)(=O)c2ccc(F)cc2F)cc1`: in data set [1], the microsomal CLint was 28 µL/min/mg. The logD in data set [2] turned out to be 2. In addition, the IC50 in data set [3] is 2090 nM.
The matching figures for `Cc1nccn1-c1ccc(CNS(=O)(=O)c2cc(F)ccc2F)cc1`: 30 µL/min/mg, 2.1 and 627 nM.
Turning to `Cc1nccn1-c1ccc(CNS(=O)(=O)c2cc(F)ccc2F)cc1F`, the microsomal CLint in data set [1] was 49 µL/min/mg. Besides, the logD in data set [2] is 2.4. The same compound had an IC50 in data set [3] of 168 nM.
